The values that follow come from patent US9670201B2, “Methyl- and trifluoromethyl-substituted pyrrolopyridine modulators of RORC2 and methods of use thereof” (Pfizer Inc., priority 2014, dated 2017).

As a reminder, the IC50 is the point on the concentration scale where inhibition reaches its midpoint. Lower therefore signals inhibition by little substance.

The target of the test is RORC2 ligand binding domain (6-His-RORC2 LBD) (Homo sapiens (Human), UniProt P51449). As to the kind of experiment: Co-activator recruitment by TR-FRET. The class given is biochemical. Conditions: 6-His-RORC2 LBD / SRC1-2 coactivator peptide, Table 1.
Chain of RORC2 ligand binding domain (6-His-RORC2 LBD) (P51449 269-508): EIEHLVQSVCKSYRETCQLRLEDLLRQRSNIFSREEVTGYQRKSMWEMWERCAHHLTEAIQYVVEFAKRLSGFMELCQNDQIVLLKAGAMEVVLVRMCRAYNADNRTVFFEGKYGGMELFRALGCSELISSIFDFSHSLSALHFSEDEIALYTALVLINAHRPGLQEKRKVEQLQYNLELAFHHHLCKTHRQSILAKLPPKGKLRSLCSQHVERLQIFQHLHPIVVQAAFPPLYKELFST
`Cc1c(NC(=O)c2cccc(C#N)c2)cnc2c1c([C@@H]1CCN(C(=O)C(C)C3CC3)C[C@@H]1C)cn2C` (stereo partly drawn) [Example 86, 3-cyano-N-(3-((3R,4R)-1-(2-cyclopropylpropanoyl)-3-methylpiperidin-4-yl)-1,4-dimethyl-1H-pyrrolo[2,3-b]pyridin-5-yl)benzamide] showed a 50% inhibitory concentration (IC50) of 16 nM. That is a double-digit nanomolar value. To `COc1cc(Cl)cc(C(=O)Nc2cnc3c(c(C4CCN(C(=O)[C@H](C)C(C)(C)C)CC4)cn3C)c2C)c1` [Example 42, (R)-3-chloro-N-(1,4-dimethyl-3-(1-(2,3,3-trimethylbutanoyl)piperidin-4-yl)-1H-pyrrolo[2,3-b]pyridin-5-yl)-5-methoxybenzamide] belongs 7.6 nM; to `Cn1cc(C2CCN(C(=O)[C@H]3CCCS3)CC2)c2c(C(F)(F)F)c(NC(=O)c3cccc(C#N)c3)cnc21` (single isomer, unassigned) [Example 28], 7.1 nM.

As for `CC(C)C(=O)N1CCC(c2cn(C)c3ncc(NC(=O)c4ccc(Cl)c(C#N)c4)c(C(F)(F)F)c23)CC1` [Example 11, 4-chloro-3-cyano-N-(3-(1-isobutyrylpiperidin-4-yl)-1-methyl-4-(trifluoromethyl)-1H-pyrrolo[2,3-b]pyridin-5-yl)benzamide], the 50% inhibitory concentration (IC50) amounted to 1.5 nM.

Take `Cc1c(NC(=O)c2cc(Cl)ccc2F)cnc2c1c(C1CCN(C(=O)[C@H](C)C(C)(C)C)CC1)cn2C` [Example 41, (R)-5-chloro-N-(1,4-dimethyl-3-(1-(2,3,3-trimethylbutanoyl)piperidin-4-yl)-1H-pyrrolo[2,3-b]pyridin-5-yl)-2-fluorobenzamide]: the IC50 worked out at 4.5 nM. This IC50 is about 3-fold higher than that of the molecule before. `CC(C)C(=O)N1C[C@H]2CC[C@@H](C1)[C@@H]2c1cn(C)c2ncc(NC(=O)c3cccc(C#N)c3)c(C(F)(F)F)c12` [Example 77, 3-cyano-N-(3-((1R,5S,8r)-3-isobutyryl-3-azabicyclo[3.2.1]octan-8-yl)-1-methyl-4-(trifluoromethyl)-1H-pyrrolo[2,3-b]pyridin-5-yl)benzamide] returned an IC50 of 5.2 nM. `Cc1c(NC(=O)c2cccc(C#N)c2)cnc2c1c(C1CCN(C(=O)[C@H]3CCC[C@@H]3C)CC1)cn2C` (single isomer, unassigned) [Example 46] yielded an IC50 of 16.4 nM. As for `COc1cc(Cl)cc(C(=O)Nc2cnc3c(c([C@@H]4CCN(C(=O)C5CCCC5)C(C)(C)C4)cn3C)c2C)c1` [Example 63, (R)-3-chloro-N-(3-(1-(cyclopentane-carbonyl)-2,2-dimethylpiperidin-4-yl)-1,4-dimethyl-1H-pyrrolo[2,3-b]pyridin-5-yl)-5-methoxybenzamide], the figure is 12.9 nM; as for `Cn1cc(C2CCN(C(=O)[C@@H]3CCCS3)CC2)c2c(C(F)(F)F)c(NC(=O)c3cccc(C#N)c3)cnc21` (single isomer, unassigned) [Example 29], 0.9 nM; as for `Cc1c(NC(=O)c2ccc(F)c(C#N)c2)cnc2c1c([C@@H]1CCN(C(=O)C3CCCC3)C(C)(C)C1)cn2C` [Example 61, (R)-3-cyano-N-(3-(1-(cyclopentanecarbonyl)-2,2-dimethylpiperidin-4-yl)-1,4-dimethyl-1H-pyrrolo[2,3-b]pyridin-5-yl)-4-fluorobenzamide], 15.2 nM. To `Cn1cc(C2CCN(C(=O)CC3CCCCC3)CC2)c2c(C(F)(F)F)c(NC(=O)c3cccc(C#N)c3)cnc21` [Example 20, 3-cyano-N-(3-(1-(2-cyclohexylacetyl)piperidin-4-yl)-1-methyl-4-(trifluoromethyl)-1H-pyrrolo[2,3-b]pyridin-5-yl)benzamide] belongs 5.2 nM; to `Cc1c(NC(=O)c2cccc(C#N)c2)cnc2c1c(C1CCN(C(=O)[C@@H]3CCC[C@H]3C(C)C)CC1)cn2C` (single isomer, unassigned) [Example 49], 6.2 nM; to `COc1cc(Cl)cc(C(=O)Nc2cnc3c(c([C@@H]4CCN(C(=O)C(C)C)C(C)(C)C4)cn3C)c2C)c1` [Example 62, (R)-3-chloro-N-(3-(1-isobutyryl-2,2-dimethylpiperidin-4-yl)-1,4-dimethyl-1H-pyrrolo[2,3-b]pyridin-5-yl)-5-methoxybenzamide], 9.7 nM. As to `C[C@@H](C(=O)N1CCC(c2cn(C)c3ncc(NC(=O)c4cc(O)cc(C#N)c4)c(C(F)(F)F)c23)CC1)C(C)(C)C` [Example 54, (R)-3-cyano-5-hydroxy-N-(1-methyl-4-(trifluoromethyl)-3-(1-(2,3,3-trimethylbutanoyl)piperidin-4-yl)-1H-pyrrolo[2,3-b]pyridin-5-yl)benzamide], the IC50 amounted to 4.7 nM. To `Cc1c(NC(=O)c2cccc(C#N)c2)cnc2c1c([C@@H]1CCN(C(=O)CC3CCCC3)C(C)(C)C1)cn2C` [Example 74, (R)-3-cyano-N-(3-(1-(2-cyclopentylacetyl)-2,2-dimethylpiperidin-4-yl)-1,4-dimethyl-1H-pyrrolo[2,3-b]pyridin-5-yl)benzamide] belongs 6.2 nM; to `CC(C)C(=O)N1CCC(c2cn(C)c3ncc(NC(=O)c4ccc(F)c(C#N)c4)c(C(F)(F)F)c23)CC1` [Example 9, 3-cyano-4-fluoro-N-(3-(1-isobutyrylpiperidin-4-yl)-1-methyl-4-(trifluoromethyl)-1H-pyrrolo[2,3-b]pyridin-5-yl)benzamide], 5.4 nM; to `CC(C)C(=O)N1CC[C@@H](c2cn(C)c3ncc(NC(=O)c4cccc(C#N)c4F)c(C(F)(F)F)c23)[C@@H](C)C1` [Example 82, 3-cyano-2-fluoro-N-(3-((3R,4R)-1-isobutyryl-3-methylpiperidin-4-yl)-1-methyl-4-(trifluoromethyl)-1H-pyrrolo[2,3-b]pyridin-5-yl)benzamide], 5.1 nM. As for `COc1cc(C#N)cc(C(=O)Nc2cnc3c(c([C@@H]4CCN(C(=O)C5CCCC5)[C@@H](C)C4)cn3C)c2C)c1` [Example 90, 3-cyano-N-(3-((2S,4R)-1-(cyclopentanecarbonyl)-2-methylpiperidin-4-yl)-1,4-dimethyl-1H-pyrrolo[2,3-b]pyridin-5-yl)-5-methoxybenzamide], the figure is 21.2 nM. To `Cc1c(NC(=O)c2cc(O)cc(C#N)c2)cnc2c1c(C1CCN(C(=O)[C@H](C)C(C)(C)C)CC1)cn2C` [Example 56, (R)-3-cyano-N-(1,4-dimethyl-3-(1-(2,3,3-trimethylbutanoyl)piperidin-4-yl)-1H-pyrrolo[2,3-b]pyridin-5-yl)-5-hydroxybenzamide] belongs 5.6 nM. In turn, `Cn1cc(C2CCN(C(=O)C3CCCC3)CC2)c2c(C(F)(F)F)c(NC(=O)c3ccc(F)c(C#N)c3)cnc21` [Example 3, 3-cyano-N-(3-(1-(cyclopentanecarbonyl)piperidin-4-yl)-1-methyl-4-(trifluoromethyl)-1H-pyrrolo[2,3-b]pyridin-5-yl)-4-fluorobenzamide] came in with an IC50 of 3.2 nM. This IC50 lies about 1.7-fold lower than the previous one. As for `Cn1cc(C2CCN(C(=O)C3CCCC3)CC2)c2c(C(F)(F)F)c(NC(=O)c3cc(O)cc(C#N)c3)cnc21` [Example 55, 3-cyano-N-(3-(1-(cyclopentanecarbonyl)piperidin-4-yl)-1-methyl-4-(trifluoromethyl)-1H-pyrrolo[2,3-b]pyridin-5-yl)-5-hydroxybenzamide], the figure is 10.6 nM; as for `Cc1c(NC(=O)c2cccc(C#N)c2)cnc2c1c(C1CCN(C(=O)[C@H](C)C(C)C)CC1)cn2C` [Example 37, (R)-3-cyano-N-(3-(1-(2,3-dimethylbutanoyl)piperidin-4-yl)-1,4-dimethyl-1H-pyrrolo[2,3-b]pyridin-5-yl)benzamide], 11.6 nM; as for `Cn1cc([C@@H]2CCN(C(=O)C3CCCC3)C(C)(C)C2)c2c(C(F)(F)F)c(NC(=O)c3cccc(C#N)c3)cnc21` [Example 65, (R)-3-cyano-N-(3-(1-(cyclopentanecarbonyl)-2,2-dimethylpiperidin-4-yl)-1-methyl-4-(trifluoromethyl)-1H-pyrrolo[2,3-b]pyridin-5-yl)benzamide], 5.7 nM.

Molecule `Cc1c(NC(=O)c2cccc(C#N)c2)cnc2c1c([C@@H]1CCN(C(=O)CC3CCCCC3)C(C)(C)C1)cn2C` [Example 75, (R)-3-cyano-N-(3-(1-(2-cyclohexylacetyl)-2,2-dimethylpiperidin-4-yl)-1,4-dimethyl-1H-pyrrolo[2,3-b]pyridin-5-yl)benzamide] yielded an IC50 of 7.3 nM. As for `COc1cc(Cl)cc(C(=O)Nc2cnc3c(c(C4CCN(C(=O)C(C)C)CC4)cn3C)c2C(F)(F)F)c1` [Example 13, 3-chloro-N-(3-(1-isobutyrylpiperidin-4-yl)-1-methyl-4-(trifluoromethyl)-1H-pyrrolo[2,3-b]pyridin-5-yl)-5-methoxybenzamide], the figure is 5 nM; as for `Cc1c(NC(=O)c2cccc(C#N)c2)cnc2c1c([C@@H]1CCN(C(=O)C[C@@H](O)C(F)(F)F)C(C)(C)C1)cn2C` [Example 73, 3-cyano-N-(3-((R)-2,2-dimethyl-1-((R)-4,4,4-trifluoro-3-hydroxybutanoyl)piperidin-4-yl)-1,4-dimethyl-1H-pyrrolo[2,3-b]pyridin-5-yl)benzamide], 22.6 nM. Consider `Cn1cc(C2CCN(C(=O)CC3CCC3)CC2)c2c(C(F)(F)F)c(NC(=O)c3cccc(C#N)c3)cnc21` [Example 18, 3-cyano-N-(3-(1-(2-cyclobutylacetyl)piperidin-4-yl)-1-methyl-4-(trifluoromethyl)-1H-pyrrolo[2,3-b]pyridin-5-yl)benzamide], for which the IC50 was determined as 3.8 nM. As for `Cc1c(NC(=O)c2cccc(C#N)c2)cnc2c1c(C1CCN(C(=O)[C@H](C)C34CC(C3)C4)CC1)cn2C` [Example 50, (R)—N-(3-(1-(2-(bicyclo[1.1.1]pentan-1-yl)propanoyl)piperidin-4-yl)-1,4-dimethyl-1H-pyrrolo[2,3-b]pyridin-5-yl)-3-cyanobenzamide], the figure is 7.5 nM; as for `Cc1c(NC(=O)c2cccc(C#N)c2)cnc2c1c([C@@H]1CCN(C(=O)CC3CCC3)C(C)(C)C1)cn2C` [Example 76, (R)-3-cyano-N-(3-(1-(2-cyclobutylacetyl)-2,2-dimethylpiperidin-4-yl)-1,4-dimethyl-1H-pyrrolo[2,3-b]pyridin-5-yl)benzamide], 7.5 nM.
